Assay results as given in US9146237B2, “In vitro assay method using immunological technique” (BASF Beauty Care Solutions France S.A.S., priority 2011, dated 2015).

Key:
[1] = tested on: type I collagen in the ECM; test: Assay of type I collagen directly on the ECM of fibroblast cultures (anticollagen I antibody, europium TRF); assay type: cell-based, human
Method: After 48 hours of culture post-confluency, the culture medium was removed and discarded. A lysis step was carried out: 110 μl of an ammonium hydroxide solution at 20 mM for 10 minutes at room temperature and with stirring. The lysate was collected and analysed. The double-stranded DNA contained in the lysate was assayed by using the bisbenzimide method (Picogreen Kit, Invitrogen). The collagen in the ECM was assayed directly on the ECM by using an anticollagen I antibody. A secondary antibody conjugated to europium was used with a detection solution and the fluorescence was measured. (Delfia® kit—Perkin Elmer). The fluorescence results were rationalized relative to the amount of dsDNA measured. The experiment was carried out without active ingredient on the one hand and with ascorbic acid solubilized in PBS at different concentrations from 0.1 to 100 μM. The experiment was carried out according to the protocol described in example 1 with fibroblasts extracted from a biopsy from a donor. The cells at confluency were incubated in the presence of the active ingredients for 48 hours at 37° C. under 0.5% CO2 or without active ingredient (control) for 48 hours at 37° C. under 0.5% CO2. […]

[2] = tested on: intracellular procollagen; test: Procollagen assay by ELISA (PIPc kit) on collected lysis medium; assay type: cell-based, human; settings: Example 4
Method: A lysis step was carried out: 110 μl of an ammonium hydroxide solution at 20 mM for 10 minutes at room temperature and with stirring. The experiment was carried out without active ingredient on the one hand and with ascorbic acid solubilized in PBS at different concentrations from 0.1 to 100 μM. On the collected lysis medium, a procollagen assay (PIPc kit, TAKARA) by ELISA was carried out for determining the amount of intracellular procollagen (Table 4.2). A DNA assay (Picogreen kit, Invitrogen) was also carried out for rationalizing all of the measurements in each well to the quantity of viable cells. The amounts of collagen and procollagen measured were rationalized to the amount of DNA present in each well.

## O=C1O[C@H]([C@@H](O)CO)C(O)=C1O [Ascorbic acid]
[1]; 50 μM, Example 6
  Effect on amount of collagen I in the ECM: significant increase in the amount of collagen I in the ECM
[1]; Example 4, 0.1 to 100 μM
  Concentration up to which the effect on content of collagen I in the ECM is dose-dependent (threshold effect): up to 50 μM
[2]
  Procollagen concentration in the intracellular compartment versus untreated control: less than that observed with the untreated control
